{"source": "patent US9499550B2", "about": "(BRISTOL-MYERS SQUIBB COMPANY, priority 2012, dated 2016)", "key": {"[1]": {"test_system": "HCV genotype 1b (Con1) replicon in HUH-7 cells", "test": "HCV replicon luciferase reporter assay, genotype 1b", "format": "cell-based", "settings": "Hepatitis C virus, Huh-7, 72 h, 3 days incubation", "outline": "(§1)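 Replicon inhibition for both genotypes was measured as Renilla luciferase signal (EnduRen, 7.5 μM final, 2 h) after 3-day, 37° C exposure of replicon-bearing HUH-7 cells in 4% FCS DMEM, 0.5% DMSO. The 1b construct carries S1179I; the 1a H77 construct carries P1496L and S2204I. Twenty-point, 3-fold dilutions were fitted four-parametrically for EC50, and CC50 was taken from multiplexed Cell Titer-Blue.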"}, "[2]": {"test_system": "HCV genotype 1a (H77 strain) replicon in HUH-7 cells", "test": "HCV replicon luciferase reporter assay, genotype 1a", "format": "cell-based", "settings": "Hepatitis C virus, Huh-7, 72 h, 3 days incubation", "outline": "as §1"}, "[3]": {"settings": "HCV genotype 1b replicon luciferase, read-out: LE_1b (EC50)"}, "[4]": {"settings": "HCV genotype 1b replicon luciferase, read-out: LE_1b (EC50, range)"}, "[5]": {"settings": "HCV genotype 1a replicon luciferase, read-out: LE_1a (EC50)"}, "[6]": {"settings": "HCV genotype 1a replicon luciferase, read-out: LE_1a (EC50, range)"}, "[7]": {"settings": "HCV genotype 1b replicon luciferase assay, range class, read-out: LE_1b (EC50, range)"}, "[8]": {"settings": "HCV genotype 1a replicon luciferase assay, range class, read-out: LE_1a (EC50, range)"}}, "note": "pEC50: −log10 of the molar value. Where two headings read alike, the source gives them in different places.", "data": [{"compound": "C[C@@H]1CC/C=C\\[C@@H]2C[C@@]2(C(=O)NS(=O)(=O)C2(CF)CC2)NC(=O)[C@@H]2C[C@@H](Oc3nc4c(c5ccccc35)OCCC4)CN2C(=O)[C@@H](NC(=O)OC(C)(C)C(F)(F)F)[C@H](C)C1", "note": "[Compound 6030, 1,1,1-trifluoro-2-methylpropan-2-yl((2R,6S,7R,9R,13aS,14aR,16aS,Z)-2-((3,4-dihydro-2H-pyrano[3,2-c]isoquinolin-6-yl)oxy)-14a-(((1-(fluoromethyl)cyclopropyl)sulfonyl)carbamoyl)-7,9-dimethyl-5,16-dioxo-1,2,3,5,6,7,8,9,10,11,13a,14,14a,15,16,16a-hexadecahydrocyclopropa[e]pyrrolo[1,2-a][1,4]diazacyclopentadecin-6-yl)carbamate]", "values": [{"measurement": "pEC50", "setting": "[1]; [3]", "value": 9.09}, {"measurement": "pEC50", "setting": "[1]; [4]", "value": "> 8.26"}, {"measurement": "pEC50", "setting": "[2]; [5]", "value": 8.84}, {"measurement": "pEC50", "setting": "[2]; [6]", "value": "> 8.26"}]}, {"compound": "[2H]C([2H])([2H])C(OC(=O)N[C@@H]1C(=O)N2C[C@H](Oc3nc(-c4ccc(OC(C)C)nc4)cc4cc(OC)ccc34)C[C@H]2C(=O)N[C@]2(C(=O)NS(=O)(=O)C3CC3)C[C@H]2/C=C\\CC[C@@H](C)C[C@H]1C)(C([2H])([2H])[2H])C(F)(F)F", "note": "[Compound 5217, 1,1,1,3,3,3-hexadeutero-2-(trifluoromethyl)propan-2-yl((2R,6S,7R,9R,13aS,14aR,16aS,Z)-14a-((cyclopropylsulfonyl)carbamoyl)-2-((3-(6-isopropoxypyridin-3-yl)-6-methoxyisoquinolin-1-yl)oxy)-7,9-dimethyl-5,16-dioxo-1,2,3,5,6,7,8,9,10,11,13a,14,14a,15,16,16a-hexadecahydrocyclopropa[e]pyrrolo[1,2-a][1,4]diazacyclopentadecin-6-yl)carbamate]", "values": [{"measurement": "pEC50", "setting": "[1]; [4]", "value": "> 8.26"}, {"measurement": "pEC50", "setting": "[2]; [6]", "value": "> 8.26"}]}, {"compound": "[2H]C([2H])([2H])C(OC(=O)N[C@@H]1C(=O)N2C[C@H](Oc3nccc4cc(OC)ccc34)CC2C(=O)N[C@]2(C(=O)NS(=O)(=O)C3(C)CC3)C[C@H]2/C=C\\CC[C@H](C)C[C@H]1C)(C([2H])([2H])[2H])C(F)(F)F", "note": "(stereo partly drawn) [Compound 5174, 1,1,1,3,3,3-hexadeutero-2-(trifluoromethyl)propan-2-yl((2R,6S,7R,9S,13aS,14aR,16aS,Z)-2-((6-methoxyisoquinolin-1-yl)oxy)-7,9-dimethyl-14a-(((1-methylcyclopropyl)sulfonyl)carbamoyl)-5,16-dioxo-1,2,3,5,6,7,8,9,10,11,13a,14,14a,15,16,16a-hexadecahydrocyclopropa[e]pyrrolo[1,2-a][1,4]diazacyclopentadecin-6-yl)carbamate]", "values": [{"measurement": "pEC50", "setting": "[1]; [4]", "value": "> 8.26"}, {"measurement": "pEC50", "setting": "[2]; [6]", "value": "> 8.26"}]}, {"compound": "[2H]C([2H])([2H])C(OC(=O)N[C@@H]1C(=O)N2C[C@H](Oc3nnc(OCC)c4ccccc34)C[C@H]2C(=O)N[C@]2(C(=O)NS(=O)(=O)C3CC3)C[C@H]2/C=C\\CC[C@H](C)C[C@H]1C)(C([2H])([2H])[2H])C(F)(F)F", "note": "[Compound 5038]", "values": [{"measurement": "pEC50", "setting": "[1]; [4]", "value": "6.99 to 8.32"}, {"measurement": "pEC50", "setting": "[2]; [6]", "value": "6.99 to 8.32"}]}, {"compound": "COc1cc2cc(-c3ccc(OC(C)C)cc3)nc(O[C@@H]3C[C@H]4C(=O)N[C@]5(C(=O)NS(=O)(=O)C6CC6)C[C@H]5/C=C\\CC[C@@H](C)C[C@@H](C)[C@H](NC(=O)O[C@@H]5C[C@@H]6C[C@@H]6C5)C(=O)N4C3)c2cc1F", "note": "[Compound 3188, (1R,3r,5S)-bicyclo[3.1.0]hexan-3-yl((2R,6S,7R,9R,13aS,14aR,16aS,Z)-14a-((cyclopropylsulfonyl)carbamoyl)-2-((7-fluoro-3-(4-isopropoxyphenyl)-6-methoxyisoquinolin-1-yl)oxy)-7,9-dimethyl-5,16-dioxo-1,2,3,5,6,7,8,9,10,11,13a,14,14a,15,16,16a-hexadecahydrocyclopropa[e]pyrrolo[1,2-a][1,4]diazacyclopentadecin-6-yl)carbamate]", "values": [{"measurement": "pEC50", "setting": "[1]; [4]", "value": "> 8.26"}, {"measurement": "pEC50", "setting": "[2]; [6]", "value": "> 8.26"}]}, {"compound": "CC[C@@H]1C[C@H](C)CC/C=C\\[C@@H]2C[C@@]2(C(=O)NS(=O)(=O)C2(C)CC2)NC(=O)[C@@H]2C[C@@H](Oc3nnc(OC)c4ccccc34)CN2C(=O)[C@H]1NC(=O)OC(C)(C)C", "note": "[Compound 5026, tert-butyl ((2R,6S,7R,9R,13aS,14aR,16aS,Z)-7-ethyl-2-((4-methoxyphthalazin-1-yl)oxy)-9-methyl-14a-(((1-methylcyclopropyl)sulfonyl)carbamoyl)-5,16-dioxo-1,2,3,5,6,7,8,9,10,11,13a,14,14a,15,16,16a-hexadecahydrocyclopropa[e]pyrrolo[1,2-a][1,4]diazacyclopentadecin-6-yl)carbamate]", "values": [{"measurement": "pEC50", "setting": "[1]; [4]", "value": "> 8.26"}, {"measurement": "pEC50", "setting": "[2]; [6]", "value": "> 8.26"}]}, {"compound": "CC[C@@H]1C[C@H](C)CC/C=C\\[C@@H]2C[C@@]2(C(=O)NS(=O)(=O)C2(CF)CC2)NC(=O)[C@@H]2C[C@@H](Oc3nc4c(c5cc(OC)ccc35)CCCO4)CN2C(=O)[C@H]1NC(=O)OC(C)(C)C(C)(F)F", "note": "[Compound 6088, 3,3-difluoro-2-methylbutan-2-yl((2R,6S,7R,9R,13aS,14aR,16aS,Z)-7-ethyl-14a-(((1-(fluoromethyl)cyclopropyl)sulfonyl)carbamoyl)-2-((9-methoxy-2,3-dihydro-1H-pyrano[2,3-c]isoquinolin-6-yl)oxy)-9-methyl-5,16-dioxo-1,2,3,5,6,7,8,9,10,11,13a,14,14a,15,16,16a-hexadecahydrocyclopropa[e]pyrrolo[1,2-a][1,4]diazacyclopentadecin-6-yl)carbamate]", "values": [{"measurement": "pEC50", "setting": "[1]; [4]", "value": "7.46 to 8.30"}, {"measurement": "pEC50", "setting": "[2]; [6]", "value": "7.46 to 8.30"}]}, {"compound": "COc1ccc2c(O[C@@H]3C[C@H]4C(=O)N[C@]5(C(=O)NS(=O)(=O)C6CC6)C[C@H]5/C=C\\CC[C@H](C)C[C@@H](C)[C@H](NC(=O)OC(C)(C)C)C(=O)N4C3)nccc2c1", "note": "[Compound 1206, tert-butyl ((2R,6S,7R,9S,13aS,14aR,16aS,Z)-14a-((cyclopropylsulfonyl)carbamoyl)-2-((6-methoxyisoquinolin-1-yl)oxy)-7,9-dimethyl-5,16-dioxo-1,2,3,5,6,7,8,9,10,11,13a,14,14a,15,16,16a-hexadecahydrocyclopropa[e]pyrrolo[1,2-a][1,4]diazacyclopentadecin-6-yl)carbamate]", "values": [{"measurement": "pEC50", "setting": "[1]; [4]", "value": "8.30 to 9.00"}, {"measurement": "pEC50", "setting": "[2]; [6]", "value": "8.30 to 9.00"}]}, {"compound": "COc1ccc2c(O[C@@H]3C[C@H]4C(=O)N[C@]5(C(=O)NS(=O)(=O)C6(C)CC6)C[C@H]5/C=C\\CC[C@H](C)C[C@@H](C)[C@H](NC(=O)OC(C)(C)C)C(=O)N4C3)nc(N(C)C)nc2c1", "note": "[Compound 3001, tert-butyl ((2R,6S,7R,9S,13aS,14aR,16aS,Z)-2-((2-(dimethylamino)-7-methoxyquinazolin-4-yl)oxy)-7,9-dimethyl-14a-(((1-methylcyclopropyl)sulfonyl)carbamoyl)-5,16-dioxo-1,2,3,5,6,7,8,9,10,11,13a,14,14a,15,16,16a-hexadecahydrocyclopropa[e]pyrrolo[1,2-a][1,4]diazacyclopentadecin-6-yl)carbamate]", "values": [{"measurement": "pEC50", "setting": "[1]; [7]", "value": "> 8.26"}, {"measurement": "pEC50", "setting": "[2]; [8]", "value": "> 8.26"}]}, {"compound": "COc1ccc2c(O[C@@H]3C[C@H]4C(=O)N[C@]5(C(=O)NS(=O)(=O)C6(C)CC6)C[C@H]5/C=C\\CC[C@@H](C)C[C@@H](C)[C@H](NC(=O)OC(C)(C)C(F)(F)F)C(=O)N4C3)nc3c(c2c1)CCCO3", "note": "[Compound 6080, 1,1,1-trifluoro-2-methylpropan-2-yl((2R,6S,7R,9R,13aS,14aR,16aS,Z)-2-((9-methoxy-2,3-dihydro-1H-pyrano[2,3-c]isoquinolin-6-yl)oxy)-7,9-dimethyl-14a-(((1-methylcyclopropyl)sulfonyl)carbamoyl)-5,16-dioxo-1,2,3,5,6,7,8,9,10,11,13a,14,14a,15,16,16a-hexadecahydrocyclopropa[e]pyrrolo[1,2-a][1,4]diazacyclopentadecin-6-yl)carbamate]", "values": [{"measurement": "pEC50", "setting": "[1]; [3]", "value": 9.10}, {"measurement": "pEC50", "setting": "[1]; [4]", "value": "9.00 to 9.29"}, {"measurement": "pEC50", "setting": "[2]; [5]", "value": 9.51}, {"measurement": "pEC50", "setting": "[2]; [6]", "value": "9.30 to 10.00"}]}, {"compound": "COc1ccc2c(O[C@@H]3C[C@H]4C(=O)N[C@]5(C(=O)NS(=O)(=O)C6(C)CC6)C[C@H]5/C=C\\CC[C@@H](C)C[C@@H](C)[C@H](N)C(=O)N4C3)ncc(OC)c2c1", "note": "[Compound 4228, (2R,6S,7R,9R,13aS,14aR,16aS,Z)-6-amino-2-(4,6-dimethoxyisoquinolin-1-yloxy)-7,9-dimethyl-N-(1-methylcyclopropylsulfonyl)-5,16-dioxo-1,2,3,5,6,7,8,9,10,11,13a,14,14a,15,16,16a-hexadecahydrocyclopropa[e]pyrrolo[1,2-a][1,4]diazacyclopentadecine-14a-carboxamide]", "values": [{"measurement": "pEC50", "setting": "[1]; [4]", "value": "> 8.26"}, {"measurement": "pEC50", "setting": "[2]; [6]", "value": "> 8.26"}]}, {"compound": "COCCOc1cc2c(Cl)cccc2c(O[C@@H]2C[C@H]3C(=O)N[C@]4(C(=O)NS(=O)(=O)C5(C)CC5)C[C@H]4/C=C\\CC[C@@H](C)C[C@@H](C)[C@H](NC(=O)OC(C)(C)C)C(=O)N3C2)n1", "note": "[Compound 1118, tert-butyl ((2R,6S,7R,9R,13aS,14aR,16aS,Z)-2-((5-chloro-3-(2-methoxyethoxyl)isoquinolin-1-yl)oxy)-7,9-dimethyl-14a-(((1-methylcyclopropyl)sulfonyl)carbamoyl)-5,16-dioxo-1,2,3,5,6,7,8,9,10,11,13a,14,14a,15,16,16a-hexadecahydrocyclopropa[e]pyrrolo[1,2-a][1,4]diazacyclopentadecin-6-yl)carbamate]", "values": [{"measurement": "pEC50", "setting": "[1]; [7]", "value": "> 8.26"}, {"measurement": "pEC50", "setting": "[2]; [8]", "value": "> 8.26"}]}, {"compound": "COc1cnc(O[C@@H]2C[C@H]3C(=O)N[C@]4(C(=O)NS(=O)(=O)C5(F)CC5)C[C@H]4/C=C\\CC[C@@H](C)C[C@@H](C)[C@H](NC(=O)OC(C)(C)C(F)(F)F)C(=O)N3C2)c2cc(F)ccc12", "note": "[Compound 4068]", "values": [{"measurement": "pEC50", "setting": "[1]; GETYPE1B, HCV genotype 1b replicon luciferase, read-out: LE_1b (EC50, range)", "value": "> 8.26"}, {"measurement": "pEC50", "setting": "[2]; GETYPE1A, HCV genotype 1a replicon luciferase, read-out: LE_1a (EC50, range)", "value": "> 8.26"}]}]}
